# In patent US9932617B2, “Ketose 3-epimerase produced by arthrobacter globiformis” (priority 2013, dated 2018):
# Read-outs that look alike come from different tables or passages of the source. Marks after values point to notes of the source that are not given here.
# Columns and labels:
# Format in all cases: biochemical, Arthrobacter globiformis M30
# [1] = biological target: T1, ketose 3-epimerase (Arthrobacter globiformis, UniProt A0A1L7NQ96); assay: Substrate specificity of purified enzyme for all ketohexoses; settings: 400 mM substrate, 20 mM MgCl2, 70° C. (120 min for D-sorbose and L-fructose, 20 min others), D-psicose taken as 100
# T1 sequence (A0A1L7NQ96 whole entry): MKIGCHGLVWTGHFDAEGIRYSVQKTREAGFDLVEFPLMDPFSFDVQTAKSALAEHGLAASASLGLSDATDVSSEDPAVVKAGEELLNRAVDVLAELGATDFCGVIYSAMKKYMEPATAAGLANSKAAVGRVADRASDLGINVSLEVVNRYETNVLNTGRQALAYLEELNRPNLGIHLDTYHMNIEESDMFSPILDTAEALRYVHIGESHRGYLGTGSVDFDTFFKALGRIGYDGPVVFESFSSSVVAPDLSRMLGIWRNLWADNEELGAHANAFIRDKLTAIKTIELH
# Description: The reactivity of the present enzyme was examined with respect to the all ketohexoses. The enzyme activity was tabulated as the relative activity with respect to the activity for D-psicose which is taken as 100. The present enzyme had activity for the all ketohexoses, and the activity was the highest for D-psicose. […] The initial velocity was determined by allowing a reaction at 70° C. for 120 min for D-sorbose and L-fructose, and 70° C. for 20 min for the other substrates.
# [2] = biological target: T1, ketose 3-epimerase; assay: D-PE substrate specificity, enzyme before purification (crude enzyme); settings: 0.2 M substrate, 55° C., 30 min, Tris buffer pH 7.0, D-psicose epimerization activity taken as 100
# Description: A reaction was allowed under the reaction conditions below. After quenching the reaction by boiling, the reaction liquid was desalted with an ion-exchange resin, and filtered to prepare an HPLC sample. The sample was analyzed by chromatography using CK08EC (Mitsubishi Chemical Corporation) in an HPLC system (Tosoh). Each product sugar was determined by calculations from the peak area values of the chromatogram.
# Eight hexose (ketoses) were used to examine the substrate specificity of the present enzyme before purification. An enzyme reaction composition (Table 4) containing each substrate (0.2 M, 350 μl) and an enzyme liquid (350 μl; Tris buffer pH 7.0) was allowed to react at 55° C. for 30 min, and the ketose epimerized and produced from each sugar was analyzed by HPLC. The results are presented as relative activity for each ketose relative to the D-psicose epimerization activity which is taken as 100, as follows. Table 5 presents relative activity values for D-fructose, D-psicose, D-sorbose, D-tagatose, L-fructose, L-psicose, L-sorbose, […] L-tagatose substrates. The activity was the highest for D-psicose, and the second highest for D-fructose. The substrate specificity can be said as characteristic of the D-psicose 3 epimerase (DPE), not other free ketose 3 epimerases, and was clearly different from the specificity of the D-tagatose3-epimerase (DTE) of Pseudomonas cichorii.
# [3] = biological target: T1, ketose 3-epimerase
# [4] = biological target: T1, ketose 3-epimerase; assay: Effects of metal ions on EDTA treated purified enzyme; settings: for Relative activity (%): 1 mM metal ion, D-psicose substrate, EDTA treated enzyme, activity without metal ions taken as 100; for metal ion activation: purified enzyme
# Description: The enzyme was examined for metal ion requirement. The purified enzyme was dialyzed for 2 hours against 10 mM Tris-HCl containing 1 mM EDTA (pH 7.5). The enzyme was further dialyzed against an EDTA-free 10 mM Tris-HCl buffer (pH 7.5) for a whole day and night to obtain an EDTA treated enzyme. This enzyme was used to measure the effect of metal ions on enzyme activity, using 1 mM of various metal ions, and D-psicose as the substrate. The results are presented in Table 13, in which the activity with addition of each type of metal ions is shown as the relative value with respect to the activity of the enzyme without metal ions which is taken as 100.
# [5] = biological target: T1, ketose 3-epimerase; assay: Km and Vmax of the present enzyme; settings: 30° C., in the presence of Mg^2+ ions
# Description: The Km and Vmax of the present enzyme for D-psicose and D-fructose were measured. The measurement was made by measuring enzyme activity at 30° C. in the presence of Mg^2+ ions.
# [6] = crude enzyme dialyzed against EDTA, D-fructose substrate, pH 7.0, 55° C., 30 min
Compound,Relative activity (%) [1] [%],Relative activity (%) [2],Relative activity (%) [4] [%],also measured
O=C(CO)[C@H](O)[C@H](O)[C@@H](O)CO [L-tagatose],44.0,12.5%,,
manganese chloride [MnCl2],,,,"metal ion activation (effect of metal salt on enzyme activity) [3, 6]: increased"
"[Mn+2] [Mn^2+, divalent manganese ions]",,,137,"metal ion activation (effect of metal salt on enzyme activity) [3, 6]: activatable; metal ion activation [4]: activatable"
[Ni+2] [Ni^2+],,,87,
"[Mg+2] [Mg^2+, magnesium ions]",,,150,metal ion activation [4]: activatable
[Cl-].[Cl-].[Co+2] [CoCl2],,,,metal ion activation (effect of metal salt on enzyme activity) ([3]; pH 7): increased
O=C(CO)[C@@H](O)[C@@H](O)[C@@H](O)CO [L-psicose],21.2,12%,,
O=C(CO)[C@@H](O)[C@H](O)[C@@H](O)CO [L-sorbose],16.6,8%,,
"[Ca+2] [Ca^2+, calcium]",,,110,metal ion activation [4]: activatable
O=C(CO)[C@H](O)[C@H](O)[C@H](O)CO [D-psicose],100,100* %,,Km [5]: 30.1 mM; Vmax [5]: 168 U/mg
O=C(CO)[C@@H](O)[C@H](O)[C@H](O)CO [D-fructose],43.8,58.14%,,Km [5]: 31.5 mM; Vmax [5]: 68.5 U/mg
[Cu+2] [Cu^2+],,,0,
O=C(CO)[C@@H](O)[C@@H](O)[C@H](O)CO [D-tagatose],18.3,5.42%,,
[Zn+2] [Zn^2+],,,0,
"[Co+2] [Co^2+, divalent cobalt ions]",,,130,"metal ion activation (effect of metal salt on enzyme activity) [3, 6]: activatable; metal ion activation [4]: activatable"
[Fe+2] [Fe^2+],,,32,
O=C(CO)[C@H](O)[C@@H](O)[C@H](O)CO [D-sorbose],1.13,1.25%,,
O=C(CO)[C@H](O)[C@@H](O)[C@@H](O)CO [L-fructose],0.97,12%,,
[Na+] [Na^+],,,120,
